From patent US20040024024A1, “Aromatic sulfone hydroxamates and their use as protease inhibitors” (priority 2001, published 2004)
pIC50: −log10 of the molar value.

What was measured:
Assay in all cases: In vitro MMP inhibition, IC50 determination (fluorogenic substrate I)
Type in all cases: biochemical
Human recombinant MMP-13 = target: T1, Human recombinant MMP-13 (Homo sapiens, UniProt P45452)
T1 construct: made in house; host or cells: baculovirus / insect cells
Procedure, shortened: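 Fluorescence at 415 nm (excitation 328 nm) reports Gly-Leu cleavage of 4 μM quenched methoxycoumarin peptide substrate I. Human recombinant MMP-13, activated by trypsin or APMA, was incubated at room temperature with varied inhibitor concentrations in pH 7.5 Tris/NaCl/CaCl2 buffer; IC50 derived from reduced fluorescence.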

Human recombinant MMP-14 = target: T2, Human recombinant MMP-14 (Homo sapiens, UniProt P50281)
T2 construct: The catalytic domain enzyme was expressed in E. coli inclusion bodies, solubilized in urea; made in house
Description: (§1) Several hydroxamates and salts thereof were analyzed in in vitro assays to determine their ability to inhibit the MMP cleavage of peptide substrates. Inhibition (Ki) and IC50 constants were calculated from the assayed hydroxamate-MMP interactions.
(§2) Human recombinant MMP-1, MMP-2, MMP-9, MMP-13, and MMP-14 were used in this assay. All enzymes were prepared in Assignee's laboratories following usual laboratory procedures. Protocols for the preparation and use of these enzymes are available in the scientific literature. See, e.g., Enzyme Nomenclature (Academic Press, San Diego, Calif., 1992) (and the citations therein). See also, Frije et al., J. Biol. Chem., 26(24), 16766-73 (1994).
The MMP-14 full length cDNA was provided by Dr. Gregory Goldberg of Washington University (St. Louis, Mo.). The catalytic domain enzyme was expressed in E. coli inclusion bodies, solubilized in urea, purified on a preparative […] reverse phase HPLC column, and then refolded in the presence of zinc acetate and purified for use.
(§3) All MMPs were activated using 4-aminophenylmercuric acetate (“APMA”, Sigma Chemical, St. Louis, Mo.) or trypsin. MMP-9 also was activated using human recombinant MMP-3 (purified in Assignee's laboratory following standard cloning and purification techniques).
(§4) Two fluorogenic, methoxycoumarin-containing polypeptide substrates were used in the MMP inhibition assays:
(§5) MCA-ProLeuGlyLeuDpaAlaArgNH2 (I)
(§6) Here, “Dpa” is 3-(2,4-dinitrophenyl)-L-2,3-diaminopropionyl group, and “MCA” is 7-methoxycoumarin-4-yl acetyl. Substrate (I) was purchased from Baychem (Redwood City, Calif.), and substrate II was prepared Assignee's laboratory. Substrate I was used in the IC50 determination assays, while substrate II was used in the Ki determination assays. In the absence of MMP inhibitory activity, either substrate is cleaved at the Gly-Leu peptide bond. This cleavage separates the highly fluorogenic peptide from the 2,4-dinitrophenyl quencher, thus resulting in increase of fluorescent intensity.
(§7) The stock solutions of the assayed hydroxamates (or salts thereof) were prepared in 1% dimethyl sulfoxide (DMSO). These stock solutions were diluted in Buffer A (100 mM Tris-HCl, 100 mM NaCl, 10 mM CaCl2, 0.05% polyoxyethylene 23 lauryl ether, pH 7.5) to obtain solutions with different hydroxamate concentrations, i.e., assay solutions with different concentrations of the assayed MMP inhibitory compound. The experiment controls contained the same amount of Buffer A/DMSO as the assayed sample, but contained no hydroxamate (or salt thereof).
(§8) The assays from which the IC50 determinations were made were performed as follows. The MMPs were activated with either trypsin or APMA (4-aminophenylmercuric acetate, Sigma Chemical, St. Louis, Mo.). The assayed hydroxamate samples were, incubated in Microfluorrm White Plates (Dynatech, Chantilly, VA) and analyzed on a Perkin Elmer L550 plate reader (Norwalk, Conn.). The excitation wavelength was 328 nm, and the emission wavelength—415 nm. All samples (assayed hydroxamates and controls) were incubated in separate plates at room temperature in the presence of 4 μM of MMP substrate (I). As stated in the previous paragraph, samples containing varying concentrations of the same assayed hydroxamate were prepared. Inhibition was measured as a reduction in fluorescent intensity as a function of MMP inhibitor concentration.

Human recombinant MMP-9 = target: T3, Human recombinant MMP-9 (Homo sapiens, UniProt P14780)
T3 construct: made in house; host or cells: MMP-9-transfected HT1080 cells (spent media)
Description: as §1, §2
The MMP-9 proenzyme was purified by gelatin Sepharose chromatography from spent media of MMP-9-transfected HT1080 cells provided by Dr. Howard Welgus of Washington University (St. Louis, Mo.).
as §3, §4, §5, §6, §7, §8

Human recombinant MMP-2 = target: T4, Human recombinant MMP-2 (Homo sapiens, UniProt P08253)
T4 construct: made in house; host or cells: MMP-2-transfected p2AHT2 cells
T4 sequence (P08253 110-660): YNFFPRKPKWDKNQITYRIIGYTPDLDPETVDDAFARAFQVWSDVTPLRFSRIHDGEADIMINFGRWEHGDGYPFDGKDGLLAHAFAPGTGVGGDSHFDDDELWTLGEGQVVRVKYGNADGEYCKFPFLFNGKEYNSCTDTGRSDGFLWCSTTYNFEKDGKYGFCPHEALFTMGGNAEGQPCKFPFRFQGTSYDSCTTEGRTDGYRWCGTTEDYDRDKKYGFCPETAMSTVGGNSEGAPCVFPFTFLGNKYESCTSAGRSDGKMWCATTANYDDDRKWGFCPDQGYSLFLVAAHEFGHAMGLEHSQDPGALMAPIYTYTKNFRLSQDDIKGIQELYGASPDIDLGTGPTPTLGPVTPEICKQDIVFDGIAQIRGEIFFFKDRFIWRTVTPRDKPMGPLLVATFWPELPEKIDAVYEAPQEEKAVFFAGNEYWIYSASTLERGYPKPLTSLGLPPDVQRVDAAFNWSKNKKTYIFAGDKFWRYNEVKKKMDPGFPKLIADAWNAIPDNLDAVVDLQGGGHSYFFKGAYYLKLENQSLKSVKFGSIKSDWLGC
Procedure, shortened: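 APMA- or trypsin-activated recombinant MMP-2 was incubated at room temperature with serial inhibitor dilutions in Tris buffer pH 7.5 (100 mM NaCl, 10 mM CaCl2, 0.05% Brij), with DMSO from 1% stocks, and 4 μM substrate I. Cleavage was read by fluorescence at 328/415 nm; IC50 was taken from the loss of fluorescence versus inhibitor concentration.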

Human recombinant MMP-1 = target: T5, Human recombinant MMP-1 (Homo sapiens, UniProt P03956)
T5 construct: made in house; host or cells: MMP-1-transfected HT-1080 cells (spent media)
T5 sequence (P03956 100-469): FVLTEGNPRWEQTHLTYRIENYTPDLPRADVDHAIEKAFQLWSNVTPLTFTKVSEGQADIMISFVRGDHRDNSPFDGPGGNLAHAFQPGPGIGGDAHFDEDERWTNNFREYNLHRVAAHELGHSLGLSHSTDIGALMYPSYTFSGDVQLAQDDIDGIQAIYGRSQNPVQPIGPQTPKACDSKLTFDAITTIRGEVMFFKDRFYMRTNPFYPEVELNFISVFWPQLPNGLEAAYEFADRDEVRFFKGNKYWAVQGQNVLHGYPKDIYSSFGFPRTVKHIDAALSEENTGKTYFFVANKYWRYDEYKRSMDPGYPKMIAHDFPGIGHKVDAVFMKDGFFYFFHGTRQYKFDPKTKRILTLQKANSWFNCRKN
Description: as §1, §2
The MMP-1 proenzyme was purified from the spent media of MMP-1-transfected HT-1080 cells provided by Dr. Harold Welgus of Washington University (St. Louis, Mo.). The protein was purified on a zinc chelating column.
as §3, §4, §5, §6, §7, §8

[1] = value outside parentheses (Ki in parenthesis)

T3 sequence (P14780 107-707 limits assumed): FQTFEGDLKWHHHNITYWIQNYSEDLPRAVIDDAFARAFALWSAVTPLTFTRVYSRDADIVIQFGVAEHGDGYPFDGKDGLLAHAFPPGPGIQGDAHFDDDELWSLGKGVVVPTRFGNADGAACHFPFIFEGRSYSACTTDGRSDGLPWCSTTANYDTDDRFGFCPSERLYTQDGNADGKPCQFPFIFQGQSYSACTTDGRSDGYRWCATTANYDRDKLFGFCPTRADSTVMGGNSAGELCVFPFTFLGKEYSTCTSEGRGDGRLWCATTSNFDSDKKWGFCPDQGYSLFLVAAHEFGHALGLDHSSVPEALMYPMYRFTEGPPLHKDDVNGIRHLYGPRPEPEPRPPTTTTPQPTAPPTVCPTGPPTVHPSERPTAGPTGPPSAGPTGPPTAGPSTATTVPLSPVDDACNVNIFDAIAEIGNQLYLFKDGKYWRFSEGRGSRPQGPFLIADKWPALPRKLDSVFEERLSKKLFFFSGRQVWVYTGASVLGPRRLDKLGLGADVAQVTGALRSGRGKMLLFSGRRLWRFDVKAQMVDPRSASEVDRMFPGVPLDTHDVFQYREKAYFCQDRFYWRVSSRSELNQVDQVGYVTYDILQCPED

pIC50 (Human recombinant MMP-13; value outside parentheses) | pIC50 (Human recombinant MMP-14; value outside parentheses) | pIC50 (Human recombinant MMP-9; value outside parentheses) | pIC50 (Human recombinant MMP-2; value outside parentheses) | pIC50 (Human recombinant MMP-1; value outside parentheses) | pIC50 (Human recombinant MMP-13; [1]) | pIC50 (Human recombinant MMP-14; [1]) | pIC50 (Human recombinant MMP-9; [1]) | pIC50 (Human recombinant MMP-2; [1]) | pIC50 (Human recombinant MMP-1; [1]) | pIC50 (Human recombinant MMP-13; value outside parenthesis) | pIC50 (Human recombinant MMP-14; value outside parenthesis) | pIC50 (Human recombinant MMP-9; value outside parenthesis) | pIC50 (Human recombinant MMP-2; value outside parenthesis) | pIC50 (Human recombinant MMP-1; value outside parenthesis) | SMILES
8.02 | 5.03 | 6.92 | 7.38 | < 5.00 | – | – | – | – | – | – | – | – | – | – | O=C(NO)C1(S(=O)(=O)c2ccc(OCCOCc3ccncc3)cc2)CCOCC1 [Example 516]
– | – | – | – | – | 9.05 | 5.31 | 7.36 | 8.18 | < 5.00 | – | – | – | – | – | COc1ccc(OCCCCOc2ccc(S(=O)(=O)C3(C(=O)NO)CCOCC3)cc2)cc1 [Example 450]
– | – | – | – | – | – | – | – | – | – | 8.43 | < 5.00 | 6.90 | 6.94 | < 5.00 | CCCc1ccc(-c2nc(CCCOc3ccc(S(=O)(=O)C4(C(=O)NO)CCOCC4)cc3)oc2C)cc1 [Example 207]
– | – | – | – | – | – | – | – | – | – | 8.24 | < 5.00 | < 5.00 | 5.93 | < 5.00 | Cc1cc(-c2cccc(CCOc3ccc(S(=O)(=O)C4(C(=O)NO)CCOCC4)cc3)c2)ccc1F [Example 120]
– | – | – | – | – | 8.43 | < 5.00 | 6.20 | 5.77 | < 5.00 | – | – | – | – | – | O=C(NO)C1(S(=O)(=O)c2ccc(OCCCNc3nc4ccccc4o3)cc2)CCOCC1 [Example 321]
– | – | – | – | – | – | – | – | – | – | 8.55 | 5.15 | 6.71 | 7.76 | 5.18 | CC(CCOc1ccc(S(=O)(=O)C2(C(=O)NO)CCOCC2)cc1)C(=O)c1cccs1 (centres unmarked) [Example 276]
8.11 | < 5.00 | 5.16 | 6.24 | < 5.00 | – | – | – | – | – | – | – | – | – | – | O=C(NO)C1(S(=O)(=O)c2ccc(OCCCc3cccc(C4CCCCN4)c3)cc2)CCN(C2CC2)CC1 (centres unmarked) [Example 609]
8.03 | 5.60 | 7.47 | 7.56 | < 5.00 | – | – | – | – | – | – | – | – | – | – | O=C(NO)C1(S(=O)(=O)c2ccc(OCCOc3ccccc3)cc2)CCOCC1 [Example 667]
– | – | – | – | – | – | – | – | – | – | 8.37 | < 5.00 | 5.67 | 6.65 | < 5.00 | Cc1ccccc1N1CC(=O)N(CCCOc2ccc(S(=O)(=O)C3(C(=O)NO)CCOCC3)cc2)C1=O [Example 226]
– | – | – | – | – | 9.30 | 5.80 | 6.77 | 8.51 | < 5.00 | – | – | – | – | – | COc1ccc(C(O)CCCCOc2ccc(S(=O)(=O)C3(C(=O)NO)CCOCC3)cc2)cc1 (centres unmarked) [Example 487]
